Source: article PMC6315362, “Cytotoxic Potential of the Novel Horseshoe Crab Peptide Polyphemusin III” (Marine Drugs, 2018)
“And” between values parts separate entries of the source, which are not always exact repeats. Equal values may be shown once. Where a SMILES comes first, the peptide text is derived from it. Bridges are numbered along the chain shown (N, C = ends).

Experiments:
K. pneumoniae (CI 287) = assay: Antimicrobial assay, broth microdilution MIC; format: cell-based, Klebsiella pneumoniae; conditions: Gram -, MH medium with NaCl, 24 h 37 °C, median of three independent triplicated experiments
Procedure: Bacterial test cultures were grown in the Mueller-Hinton (MH) medium at 37 °C to mid-log phase and then diluted with the 2 x MH medium supplemented with 1.8% NaCl. 50 µL of the bacterial suspension with a final cell concentration of 10^6 CFU/mL were added to aliquots of 50 µL of the peptide solutions and serially diluted with sterilized 0.1% bovine serum albumin in 96-well flat-bottom polystyrene microplates (Eppendorf, Hamburg, Germany). Bacterial cells were incubated for 24 h at 37 °C and 900 rpm on the plate thermoshaker (Biosan, Riga, Latvia). The minimum inhibitory concentrations (MIC) were determined as the lowest peptide concentration that prevented growth of a test microorganism observed as visible turbidity. The results were expressed as median values of three independent triplicated experiments. Assessment of antimicrobial activities of the recombinant PM III, other polyphemusins, and tachyplesins was conducted against Gram-negative (Escherichia coli ML-35p, Klebsiella pneumoniae (clinical isolate, CI 287), Pseudomonas aeruginosa PAO1) and Gram-positive (Staphylococcus aureus ATCC 29213, Staphylococcus aureus 209P, Bacillus subtilis B-886, Micrococcus luteus B-1314) bacteria.

[1] = tested on: HEF (human embryonic fibroblasts); format: cell-based; conditions: HEF normal cells; MTT after 48 h, DMEM/F12 with 10% FBS; mean ± SD of at least three independent experiments
Procedure: (§1) Cytotoxic activities of PM III, its isoforms, and tachyplesins against seven human cell lines were evaluated. Four cancer (HL-60 acute promyelocytic leukemia, HeLa cervix adenocarcinoma, SK-BR-3 breast adenocarcinoma, A549 lung carcinoma), one transformed (HEK 293T transformed human embryonic kidney), and two normal human cell lines (HEF human embryonic fibroblasts and NHA normal human astrocytes) were used for these experiments. Cytotoxicity was measured by incubating the cells with serial dilutions of PM I, PM II, PM III, TP I, TP II, or TP III samples followed by MTT assay after 48 h. The half-maximal inhibitory concentrations (IC50) were measured as the peptide concentration at which cell viability was reduced by 50% in comparison to untreated cells (Table 3).
(§2) The following tumor and transformed cell lines were used in this study: HL-60 (acute promyelocytic leukemia), HeLa (human cervix adenocarcinoma cells), SK-BR-3 (human breast adenocarcinoma cells), A549 (human lung carcinoma cells), HEK 293T (transformed human embryonic kidney cells), HEF (human embryonic fibroblasts), and NHA (normal human astrocytes) were used as normal cell lines. Tumor and transformed cell lines were obtained from the American Type Culture Collection (ATCC; www.atcc.org). Primary cells HEF (normal human embryonic fibroblasts derived from human embryonic stem cells) and NHA (normal human astrocytes derived from human fetal brain tissue) were obtained and cultured according to the corresponding protocol. Briefly, cells were cultured in DMEM/F12 (1:1) or RPMI-1640 medium containing 10% fetal bovine serum (Invitrogen, USA) at 37 °C in the atmosphere containing 5% CO2 and 95% air according to standard mammalian tissue culture protocols and using a sterile technique. All cell lines were tested by using the LookOut® Mycoplasma PCR Detection Kit (Sigma-Aldrich, St. Louis, MO, USA) according to the manufacturer’s protocol and found to be free of Mycoplasma infection.
(§3) The colorimetric 3-(4,5-dimethylthiazol-2-yl)-2,5-diphenyltetrazolium bromide (MTT) dye reduction assay was used to determine the cytotoxicity of the polyphemusins and tachyplesins. Cells (3 × 10^3–6 × 10^3 per well) were placed into 96-well plates in Dulbecco’s modified Eagle’s medium (DMEM/F12) supplemented with 10% fetal bovine serum (FBS). After incubation in the atmosphere containing 5% CO2 and 95% air at 37 °C overnight, the media were discarded, and polyphemusins or tachyplesins solutions were added to the cell cultures up to final concentrations of 2.5, 5, 10, 25, and 50 μM in a final volume of 0.1 mL DMEM/F12 with 10% FBS. HL-60 cells (4 × 10^4 in 50 μL) were added to two-time serial dilutions of polyphemusins solutions at a final concentration of 1.25, 2.5, 5, 10, 25, and 50 μM in 50 μL RPMI-1640 with 10% FBS. 48 hours later, 20 μL of MTT (5 mg/mL) was added into each well and the plates were incubated for 3 h at 37 °C. The plates with HL-60 cells were centrifuged for 10 min at 300 g. The media were discarded and 0.1 mL of dimethyl sulfoxide and isopropanol mixture at a ratio of 1:1 (v/v) was added to each well to dissolve the crystallized formazan. The absorbance at 570 nm was measured by a microplate reader (Eppendorf, Hamburg, Germany).

[2] = tested on: HEK 293T (transformed human embryonic kidney cells); format: cell-based; conditions: MTT after 48 h, DMEM/F12 with 10% FBS, mean ± SD of at least three independent experiments
Procedure: as §1, §2, §3

[3] = tested on: HeLa (human cervix adenocarcinoma cells); format: cell-based; conditions: MTT after 48 h, DMEM/F12 with 10% FBS, mean ± SD of at least three independent experiments
Procedure: as §1, §2, §3

[4] = tested on: NHA (normal human astrocytes); format: cell-based; conditions: NHA normal cells; MTT after 48 h, DMEM/F12 with 10% FBS; mean ± SD of at least three independent experiments
Procedure: as §1, §2, §3

[5] = tested on: SK-BR-3 (human breast adenocarcinoma cells); format: cell-based; conditions: MTT after 48 h, DMEM/F12 with 10% FBS, mean ± SD of at least three independent experiments
Procedure: as §1, §2, §3

Structure (SMILES)	MICs (K. pneumoniae (CI 287))	IC50 [1]	IC50 [2]	IC50 [3]	IC50 [4]	IC50 [5]
CC[C@H](C)[C@@H]1NC(=O)CNC(=O)[C@H](CCCNC(=N)N)NC(=O)[C@H](Cc2ccc(O)cc2)NC(=O)[C@@H]2CSSC[C@H](NC1=O)C(=O)N[C@@H](Cc1ccc(O)cc1)C(=O)N[C@@H](CCCNC(=N)N)C(=O)N[C@@H](CCCNC(=N)N)C(=O)N[C@H](C(=O)N[C@@H](CCCNC(=N)N)C(=O)O)CSSC[C@H](NC(=O)[C@H](Cc1c[nH]c3ccccc13)NC(=O)[C@@H](N)CCCCN)C(=O)N[C@@H](Cc1ccccc1)C(=O)N[C@@H](CCCNC(=N)N)C(=O)N[C@@H](C(C)C)C(=O)N2 [TP I, tachyplesin I] (H-KWCFRVCYRGICYRRCR-OH; disulfide 3-16, 7-12 (inferred); N-terminus assumed)	0.5 µM	13 ± 1.5 µM	23.5 ± 1.2 µM	24.2 ± 1.7 µM	24.7 ± 1.8 µM	30.1 ± 1.9 µM
CC[C@H](C)[C@@H]1NC(=O)CNC(=O)[C@H](CCCNC(=N)N)NC(=O)[C@H](Cc2ccc(O)cc2)NC(=O)[C@@H]2CSSC[C@H](NC1=O)C(=O)N[C@@H](Cc1ccc(O)cc1)C(=O)N[C@@H](CCCNC(=N)N)C(=O)N[C@@H](CCCCN)C(=O)N[C@H](C(=O)N[C@@H](CCCNC(=N)N)C(=O)O)CSSC[C@H](NC(=O)[C@H](Cc1c[nH]c3ccccc13)NC(=O)[C@@H](N)CCCCN)C(=O)N[C@@H](Cc1ccccc1)C(=O)N[C@@H](CCCNC(=N)N)C(=O)N[C@@H](C(C)C)C(=O)N2 [TP III, tachyplesin III] (H-KWCFRVCYRGICYRKCR-OH; disulfide 3-16, 7-12 (inferred); N-terminus assumed)	0.5 µM	14.1 ± 1.2 µM	19.7 ± 1.9 µM	13.7 ± 1.3 µM	21.3 ± 1.2 µM	27.5 ± 0.8 µM
CC(C)[C@@H]1NC(=O)[C@H](CCCNC(=N)N)NC(=O)[C@H](Cc2ccccc2)NC(=O)[C@@H](NC(=O)[C@H](Cc2c[nH]c3ccccc23)NC(=O)[C@H](CCCNC(=N)N)NC(=O)[C@@H](N)CCCNC(=N)N)CSSC[C@@H](C(=O)N[C@@H](CCCNC(=N)N)C(=O)O)NC(=O)[C@H](CCCCN)NC(=O)[C@H](CCCNC(=N)N)NC(=O)[C@H](Cc2ccc(O)cc2)NC(=O)[C@@H]2CSSC[C@H](NC1=O)C(=O)N[C@@H](Cc1ccc(O)cc1)C(=O)N[C@@H](CCCCN)C(=O)NCC(=O)N[C@@H](Cc1ccccc1)C(=O)N2 [PM II, polyphemusin II] (H-RRWCFRVCYKGFCYRKCR-OH; disulfide 4-17, 8-13 (inferred); N-terminus assumed)	0.5 µM	7 µM and 9.7 µM	11.3 ± 1.6 µM	16.4 ± 1.3 µM	18.3 ± 1.4 µM	17.3 ± 0.6 µM
CC[C@H](C)[C@@H]1NC(=O)CNC(=O)[C@H](CCCNC(=N)N)NC(=O)[C@H](Cc2ccc(O)cc2)NC(=O)[C@@H]2CSSC[C@H](NC1=O)C(=O)N[C@@H](Cc1ccc(O)cc1)C(=O)N[C@@H](CCCNC(=N)N)C(=O)N[C@@H](CCCCN)C(=O)N[C@H](C(=O)N[C@@H](CCCNC(=N)N)C(=O)O)CSSC[C@H](NC(=O)[C@H](Cc1c[nH]c3ccccc13)NC(=O)[C@@H](N)CCCNC(=N)N)C(=O)N[C@@H](Cc1ccccc1)C(=O)N[C@@H](CCCNC(=N)N)C(=O)N[C@@H](C(C)C)C(=O)N2 [TP II, tachyplesin II] (H-RWCFRVCYRGICYRKCR-OH; disulfide 3-16, 7-12 (inferred); N-terminus assumed)	1 µM	17.7 ± 1.2 µM	24.6 ± 1.7 µM	24.4 ± 3 µM	29.4 ± 1.7 µM	34 ± 1.3 µM
CC(C)[C@@H]1NC(=O)[C@H](CCCNC(=N)N)NC(=O)[C@H](Cc2ccccc2)NC(=O)[C@@H](NC(=O)CNC(=O)[C@H](CCCNC(=N)N)NC(=O)[C@@H](N)CCCNC(=N)N)CSSC[C@@H](C(=O)N[C@@H](CCCNC(=N)N)C(=O)O)NC(=O)[C@H](CCCNC(=N)N)NC(=O)[C@H](CCC(N)=O)NC(=O)[C@H](Cc2ccccc2)NC(=O)[C@@H]2CSSC[C@H](NC1=O)C(=O)N[C@@H](Cc1ccc(O)cc1)C(=O)N[C@@H](CCCNC(=N)N)C(=O)NCC(=O)N[C@@H](Cc1ccccc1)C(=O)N2 [PM III, polyphemusin III] (H-RRGCFRVCYRGFCFQRCR-OH; disulfide 4-17, 8-13 (inferred); N-terminus assumed)	2 µM	7 ± 0.4 µM	7.3 ± 0.4 µM	6 ± 0.2 µM	7.5 ± 0.5 µM	9.9 ± 0.1 µM
CC(C)[C@@H]1NC(=O)[C@H](CCCNC(=N)N)NC(=O)[C@H](Cc2ccccc2)NC(=O)[C@@H](NC(=O)[C@H](Cc2c[nH]c3ccccc23)NC(=O)[C@H](CCCNC(=N)N)NC(=O)[C@@H](N)CCCNC(=N)N)CSSC[C@@H](C(=O)N[C@@H](CCCNC(=N)N)C(=O)O)NC(=O)[C@H](CCCCN)NC(=O)[C@H](CCCNC(=N)N)NC(=O)[C@H](Cc2ccc(O)cc2)NC(=O)[C@@H]2CSSC[C@H](NC1=O)C(=O)N[C@@H](Cc1ccc(O)cc1)C(=O)N[C@@H](CCCNC(=N)N)C(=O)NCC(=O)N[C@@H](Cc1ccccc1)C(=O)N2 [PM I, polyphemusin I] (H-RRWCFRVCYRGFCYRKCR-OH; disulfide 4-17, 8-13 (inferred); N-terminus assumed)	0.5 µM	8.3 ± 0.7 µM	9.4 ± 1.5 µM	12.5 ± 0.9 µM	14.5 ± 1.6 µM	16 ± 0.6 µM
